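48-hour exposure; five concentrations; linearly interpolated endpoints. At the GI50, growth is halved.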 The source made the active and inactive calls. No stated cut-off is given here; in the data, active = GI50 up to about 1.1 µM and inactive = higher.
Columns and labels:
Assay in all cases: inhibition of tumour cell growth, NCI panel, 48 h
CCRF-CEM = tested on: CCRF-CEM
SNB-19 = tested on: SNB-19
RXF 631 = tested on: RXF 631
Malme-3M = tested on: Malme-3M
RPMI-8226 = tested on: RPMI-8226
HCT-15 = tested on: HCT-15
A549 = tested on: A549
TK-10 = tested on: TK-10
CAKI-1 = tested on: CAKI-1
IGROV-1 = tested on: IGROV-1
NCI-H522 = tested on: NCI-H522
DLD-1 = tested on: DLD-1
U-251 = tested on: U-251
SK-MEL-2 = tested on: SK-MEL-2
SN12C = tested on: SN12C
HCC 2998 = tested on: HCC 2998
UACC-62 = tested on: UACC-62
OVCAR-4 = tested on: OVCAR-4
SW-620 = tested on: SW-620
K562 = tested on: K562
ACHN = tested on: ACHN
XF498 = tested on: XF498
SF-295 = tested on: SF-295
SK-OV-3 = tested on: SK-OV-3
DMS-273 = tested on: DMS-273
NCI-H226 = tested on: NCI-H226
SK-MEL-5 = tested on: SK-MEL-5
M19-MEL = tested on: M19-MEL
SNB-75 = tested on: SNB-75
HL-60 = tested on: HL-60
UO-31 = tested on: UO-31
SK-MEL-28 = tested on: SK-MEL-28
SF-268 = tested on: SF-268
M14 = tested on: M14
HOP-92 = tested on: HOP-92
KM12 = tested on: KM12
LXFL 529 = tested on: LXFL 529
DMS-114 = tested on: DMS-114
KM-20L2 = tested on: KM-20L2
UACC-257 = tested on: UACC-257
NCI-H460 = tested on: NCI-H460
OVCAR-3 = tested on: OVCAR-3
MOLT-4 = tested on: MOLT-4
OVCAR-8 = tested on: OVCAR-8
786-0 = tested on: 786-0
HT-29 = tested on: HT-29
A498 = tested on: A498
COLO 205 = tested on: COLO 205
NCI-H23 = tested on: NCI-H23
HOP-62 = tested on: HOP-62
EKVX = tested on: EKVX
OVCAR-5 = tested on: OVCAR-5
HCT-116 = tested on: HCT-116
LOX IMVI = tested on: LOX IMVI
SF-539 = tested on: SF-539
SR = tested on: SR

## CC1SC2=NC3=C(c4ccccc4C3=O)C(c3ccc(Cl)cc3)N2C1=O (centres undefined)
CCRF-CEM
  GI50: > 100 µM (inactive)
SNB-19
  GI50: > 100 µM (inactive)
RXF 631
  GI50: > 100 µM (inactive)
Malme-3M
  GI50: > 100 µM (inactive)
RPMI-8226
  GI50: 64 µM (inactive)
HCT-15
  GI50: > 100 µM
A549
  GI50: > 100 µM (inactive)
TK-10
  GI50: > 100 µM (inactive)
CAKI-1
  GI50: > 100 µM (inactive)
IGROV-1
  GI50: > 100 µM (inactive)
NCI-H522
  GI50: 25.1 µM (inactive)
DLD-1
  GI50: > 100 µM (inactive)
U-251
  GI50: > 100 µM (inactive)
SK-MEL-2
  GI50: > 100 µM (inactive)
SN12C
  GI50: 95.5 µM (inactive)
HCC 2998
  GI50: > 100 µM (inactive)
UACC-62
  GI50: > 100 µM (inactive)
OVCAR-4
  GI50: 61.1 µM (inactive)
SW-620
  GI50: > 100 µM (inactive)
K562
  GI50: > 100 µM (inactive)
ACHN
  GI50: > 100 µM (inactive)
XF498
  GI50: > 100 µM (inactive)
SF-295
  GI50: > 100 µM (inactive)
SK-OV-3
  GI50: > 100 µM (inactive)
DMS-273
  GI50: > 100 µM (inactive)
NCI-H226
  GI50: > 100 µM (inactive)
SK-MEL-5
  GI50: > 100 µM (inactive)
M19-MEL
  GI50: > 100 µM (inactive)
SNB-75
  GI50: 45.8 µM (inactive)
HL-60
  GI50: > 100 µM (inactive)
UO-31
  GI50: 32.8 µM (inactive)
SK-MEL-28
  GI50: > 100 µM (inactive)
SF-268
  GI50: > 100 µM (inactive)
M14
  GI50: > 100 µM (inactive)
HOP-92
  GI50: 22.3 µM (inactive)
KM12
  GI50: > 100 µM (inactive)
LXFL 529
  GI50: > 100 µM (inactive)
DMS-114
  GI50: > 100 µM (inactive)
KM-20L2
  GI50: > 100 µM (inactive)
UACC-257
  GI50: > 100 µM (inactive)
NCI-H460
  GI50: > 100 µM (inactive)
OVCAR-3
  GI50: > 100 µM (inactive)
MOLT-4
  GI50: > 100 µM (inactive)
OVCAR-8
  GI50: > 100 µM (inactive)
786-0
  GI50: > 100 µM (inactive)
HT-29
  GI50: > 100 µM (inactive)
A498
  GI50: > 100 µM (inactive)
COLO 205
  GI50: > 100 µM (inactive)
NCI-H23
  GI50: 97.7 µM (inactive)
HOP-62
  GI50: > 100 µM (inactive)
EKVX
  GI50: > 100 µM (inactive)
OVCAR-5
  GI50: > 100 µM (inactive)

## CCN(CC)CCNc1ccc2nc(C)n3c4ccc(O)cc4c(=O)c1c23
SNB-19
  GI50: 0.546 µM (active)
RXF 631
  GI50: 0.331 µM (active)
Malme-3M
  GI50: 3.56 µM (inactive)
RPMI-8226
  GI50: 2.16 µM (inactive)
HCT-15
  GI50: 0.64 µM
A549
  GI50: 0.179 µM (active)
CAKI-1
  GI50: 1.24 µM (inactive)
IGROV-1
  GI50: 1.38 µM (inactive)
NCI-H522
  GI50: 0.179 µM (active)
DLD-1
  GI50: 0.371 µM (active)
U-251
  GI50: 0.745 µM (active)
SK-MEL-2
  GI50: 7.24 µM (inactive)
SN12C
  GI50: 0.618 µM (active)
HCC 2998
  GI50: 0.552 µM (active)
OVCAR-4
  GI50: 0.525 µM (active)
HCT-116
  GI50: 0.357 µM (active)
SW-620
  GI50: 0.596 µM (active)
K562
  GI50: 1.48 µM (inactive)
ACHN
  GI50: 0.231 µM (active)
LOX IMVI
  GI50: 0.71 µM (active)
SF-295
  GI50: 0.462 µM (active)
SK-OV-3
  GI50: 1.14 µM (inactive)
DMS-273
  GI50: 0.37 µM (active)
NCI-H226
  GI50: 0.16 µM (active)
SK-MEL-5
  GI50: 2.01 µM (inactive)
M19-MEL
  GI50: 3.49 µM (inactive)
SNB-75
  GI50: 1.09 µM (active)
HL-60
  GI50: 0.286 µM (active)
UO-31
  GI50: 1.94 µM (inactive)
SK-MEL-28
  GI50: 2.77 µM (inactive)
SF-268
  GI50: 0.481 µM (active)
M14
  GI50: 2.99 µM (inactive)
KM12
  GI50: 3.02 µM (inactive)
LXFL 529
  GI50: 0.78 µM (active)
SF-539
  GI50: 1.79 µM (inactive)
DMS-114
  GI50: 1.42 µM (inactive)
UACC-257
  GI50: 8.63 µM (inactive)
NCI-H460
  GI50: 0.215 µM (active)
OVCAR-3
  GI50: 1.97 µM (inactive)
MOLT-4
  GI50: 0.0447 µM (active)
OVCAR-8
  GI50: 0.371 µM (active)
786-0
  GI50: 0.381 µM (active)
HT-29
  GI50: 0.246 µM (active)
A498
  GI50: 2.69 µM (inactive)
HOP-62
  GI50: 0.975 µM (active)
OVCAR-5
  GI50: 0.479 µM (active)
SR
  GI50: 0.049 µM (active)

— ChEMBL document CHEMBL1201862, “PubChem BioAssay data set” (2004)
